# Results published in patent US11219625B2, “Inhibitors of N-linked glycosylation and methods using same” (YALE UNIVERSITY, priority 2015, dated 2022).
# Legend:
# [1] = target: T1, OST (Canis lupus familiaris, UniProt F1PJP5); assay: Cell free OST inhibition, canine pancreas microsomes with in vitro translation of pSAP mRNA; type: biochemical; conditions: FIG. 2D
# T1 construct: rabbit reticulocyte lysate translation system supplemented with canine pancreas rough microsomes (cRM); from tissue; host or cells: canine pancreas rough microsomes
# T1 sequence (F1PJP5 1-705): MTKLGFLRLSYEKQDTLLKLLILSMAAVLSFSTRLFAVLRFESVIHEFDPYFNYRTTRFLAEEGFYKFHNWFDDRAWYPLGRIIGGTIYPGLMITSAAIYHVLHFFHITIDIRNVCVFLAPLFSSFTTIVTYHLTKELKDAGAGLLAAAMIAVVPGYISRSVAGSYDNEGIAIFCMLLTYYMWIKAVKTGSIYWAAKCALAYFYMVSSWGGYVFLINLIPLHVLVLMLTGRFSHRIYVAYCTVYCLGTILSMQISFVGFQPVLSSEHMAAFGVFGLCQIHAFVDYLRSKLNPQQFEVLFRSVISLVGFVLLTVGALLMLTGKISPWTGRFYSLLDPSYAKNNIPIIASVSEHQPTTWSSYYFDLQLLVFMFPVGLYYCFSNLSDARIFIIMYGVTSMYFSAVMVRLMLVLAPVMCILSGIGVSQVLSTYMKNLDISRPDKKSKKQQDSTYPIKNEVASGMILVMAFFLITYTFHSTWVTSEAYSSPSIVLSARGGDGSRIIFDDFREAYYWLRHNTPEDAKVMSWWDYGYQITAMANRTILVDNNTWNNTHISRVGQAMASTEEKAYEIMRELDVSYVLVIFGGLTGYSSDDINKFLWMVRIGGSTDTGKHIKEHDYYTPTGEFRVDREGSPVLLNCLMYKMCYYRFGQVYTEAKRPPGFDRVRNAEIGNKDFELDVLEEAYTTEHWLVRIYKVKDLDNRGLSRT
# Procedure: FIGS. 2A-2I illustrate the finding that NGI-1 blocks OST function. FIG. 2A illustrates the western blots of glycosylated luciferase (Luc) after treatment with 1 μM tunicmaycin (Tn) and 10 μM NGI-1 in CHO-Lec15 and CHO-Lec35 cells with stable expression of ER-LucT. FIG. 2B is a […] illustrating FACE analysis of lipid linked oligosaccharides (LLOs). FIG. 2C is a series of western blots illustrating the effects of NGI-1 (5 μM) on free oligosaccharides (left panel) and N-linked glycans cleaved from peptides with Peptide-N-Glycosidase F (right panel). Carbohydrate size is indicated with glucose markers (G4-G7). FIG. 2D is a western blot illustrating cell free inhibition of the OST using a rabbit reticulocyte lysate translation system supplemented with canine pancreas rough microsomes (cRM). […] FIGS. 2G-2H: Dose response and quantitation of NGI-1 effect on pSAP (squares) and SHBG glycosylation (circles). […]
# The OST is an ER resident multi-subunit complex that cleaves LLOs and transfers the oligosaccharide to a protein encoded N-linked glycosylation consensus sequence (NXT/S). […] Both enzymatic products of the OST, free glycans and protein glycans, were therefore determined with and without NGI-1 treatment using optimized conditions in streptolysin-O permeabilized CHO cells (FIG. 2C). […]
# [2] = system: H2444 cells; assay: MTT proliferation assay, H2444; type: cell-based; conditions: H2444, 10 μM NGI-1, 5 d
# Procedure: FIGS. 4A-4H illustrate the finding that NGI-1 blocks RTK driven proliferation. FIG. 4A illustrates western blot analysis of EGFR phosphorylation (Y1173) and gel mobility in PC9 (EGFR-mutant) and A549 (k-ras mutant) NSCLC cells after 10 μM NGI-1 treatment for 24 h. […] Actin expression was used as a control for protein loading. FIG. 4B illustrates MTT assays results of PC9 following treatment with 10 μM NGI-1 or 1 μM tunicamycin for a total of 5 d. Relative proliferation id reported in fold increase from day 0. FIG. 4C illustrates MTT assays results of A549 following treatment with 10 μM NGI-1 or 1 μM tunicamycin for a total of 5 d. Relative proliferation id reported in fold increase from day 0. FIG. 4D illustrates protein phosphorylation profiles of PC9 cells analyzed by phospho-protein array to assess the response of PC9 to 10 μM NGI-1 for 24 h. FIG. 4E illustrates protein phosphorylation profiles of A549 cells analyzed by phospho-protein array to assess the response of A549 to 10 μM NGI-1 for 24 h. […]
# Growth rates were determined by CellTiter 96 NonRadioactive Cell Proliferation Assay (Promega; Madison, Wis. USA) according to the manufacturer's directions. […] Cell numbers were estimated after 0, 3, and 5 days by adding MTT [(3-(4,5-Dimethylthiazol-2-yl)-2,5-diphenyltetrazolium bromide] reagent to the wells 4 hours before taking the spectrophotometric reading (absorbance at 570 nm).
compound,measurement,setting,value
"Cc1cnc(NC(=O)c2cc(S(=O)(=O)N(C)C)ccc2N2CCCC2)s1 [NGI-1, 5-(N,N-Dimethylsulfamoyl)-N-(5-methylthiazol-2-yl)-2-(pyrrolidin-1-yl)benzamide]","inhibition of pSAP N-linked glycosylation, cell free",[1],dose dependent inhibition of pSAP N-linked glycosylation
same,"effect on proliferation, MTT",[2],insensitive to NGI-1
